Measured values published in patent publication US9802899B2, “Heterocyclic compounds as pesticides” (BAYER CROPSCIENCE AG, priority 2012, dated 2017).

Test: Determination of the log P values by HPLC (formic acid method)
Type: physicochemical
Conditions: reversed-phase HPLC column (C 18), reversed-phase column (C 18), acidic range (pH 3.4), 55° C.
Method: 1) Description of Method for Determination of the Log P Values (Formic Acid Method)
Eluents for determination in the acidic range (pH 3.4):
Eluent A: acetonitrile+1 ml of formic acid/liter. Eluent B: water+0.9 ml of formic acid/liter.
The lambda max values were determined in the maxima of the chromatographic signals using the UV spectra from 200 nm to 400 nm.

Compound	chromatographic logP
Nc1ccn(-c2cc(F)ccc2F)n1 [1-(2,5-Difluorophenyl)-1H-pyrazole-3-amine]	1.58
Nc1nn(-c2ccccc2Cl)cc1I [4-Iodo-1-(2-chlorophenyl)-1H-pyrazole-3-amine]	2.36
Nc1ccn(-c2cccc(Cl)c2Cl)n1 [1-(2,3-Dichlorophenyl)-1H-pyrazole-3-amine]	1.97
Cc1nc(F)c(-n2ccc(N)n2)cc1F [1-(2,5-Difluoro-6-methylpyridin-3-yl)-1H-pyrazole-3-amine]	1.5

Same assay, conditions: reversed-phase column (C 18), acidic range (pH 3.4), 55° C.

Compound	log P
O=C(Nc1cnn(-c2c(F)cccc2F)n1)c1nccnc1C(F)(F)F [Compound I-2-79]	2.60
O=C(Nc1ccn(-c2c(F)cccc2F)n1)c1occc1I [Compound I-1-288]	2.64
Cc1cn(-c2ccccc2Cl)nc1NC(=O)c1ccccc1C(F)(F)F [Compound I-1-345]	3.01
O=C(Nc1ccn(-c2cc(F)c(F)cc2F)n1)c1cccnc1C(F)(F)F [Compound I-1-192]	3.42
Cc1ccc(-n2ccc(NC(=O)c3ccccc3Cl)n2)c(Cl)c1 [Compound I-1-339]	3.20
O=C(Nc1ccn(-c2ccccc2Cl)n1)c1c(F)cccc1F [Compound I-1-36]	2.65
O=C(Nc1nn(-c2ncc(F)cc2F)cc1F)c1ccccc1C(F)(F)F [Compound I-1-465]	2.44
Cc1nn(-c2ncccc2Cl)nc1N(C(=O)c1ccccc1C(F)(F)F)C(=O)c1ccccc1C(F)(F)F [Compound I-2-54]	3.93
CC(=O)N(C(=O)c1ccccc1C(F)(F)F)c1ccn(-c2ncc(F)cc2F)n1 [Compound I-1-142]	2.97
O=C(Nc1ccn(-c2c(F)cccc2F)n1)c1ccc(F)cc1C(F)(F)F [Compound I-1-322]	2.80
N#Cc1ccccc1C(=O)Nc1ccn(-c2c(F)cccc2F)n1 [Compound I-1-272]	2.48
O=C(Nc1nn(-c2cc(F)cnc2F)c2ccccc12)c1ccccc1Br [Compound I-5-6]	3.05
Cc1cc(NC(=O)c2ccccc2OC(F)(F)F)nn1-c1ccccc1Cl [Compound I-1-343]	2.87
N#Cc1c(F)cccc1-n1ccc(NC(=O)c2cccnc2Cl)n1 [Compound I-1-622]	1.95
O=C(Nc1ccn(-c2cc(F)c(F)cc2F)n1)c1ccccc1Cl [Compound I-1-195]	3.94
N#Cc1c(F)cccc1-n1ccc(NC(=O)c2cccnc2C(F)(F)F)n1 [Compound I-1-618]	2.26

Compound	log P
O=C(Nc1cnn(-c2ncccc2Cl)n1)c1cccnc1C(F)(F)F [Compound I-2-55]	1.95
O=C(Nc1ccn(-c2cccc(F)c2F)n1)c1ccccc1C(F)(F)F [Compound I-1-62]	3.07
O=C(Nc1ccn(-c2ccccc2Cl)n1)c1cccc(Cl)c1Cl [Compound I-1-350]	3.20
O=C(c1ccccc1I)N(C(=O)c1ccccc1I)c1nn(-c2ccccc2Br)nc1Cl [Compound I-2-34]	5.06
O=C(Nc1nn(-c2ccccc2Cl)nc1Cl)c1ccccc1C(F)(F)F [Compound I-2-19]	3.21
O=C(Nc1ccn(-c2ccccc2Cl)n1)c1sccc1C(F)F [Compound I-1-374]	3.15
O=C(Nc1cnn(-c2c(F)cccc2F)n1)c1sccc1C(F)(F)F [Compound I-2-82]	2.95
O=C(Nc1nn(-c2ccccc2Br)nc1Cl)c1ccccc1Cl [Compound I-2-29]	3.09
O=C(Nc1nn(-c2ccccc2Br)nc1Cl)c1ccccc1C(F)(F)F [Compound I-2-26]	3.22
N#Cc1cc(F)ccc1-n1ccc(NC(=O)c2ccccc2Br)n1 [Compound I-1-629]	2.55
O=C(Nc1ccn(-c2ccccc2[N+](=O)[O-])n1)c1cccnc1C(F)(F)F [Compound I-1-416]	2.16
Cc1nn(-c2ncccc2Cl)nc1NC(=O)c1ccccc1C(F)(F)F [Compound I-2-53]	2.33
CS(=O)(=O)c1ccccc1C(=O)Nc1ccn(-c2ccccc2Cl)n1 [Compound I-1-341]	2.17
O=C(Nc1ccn(-c2nccc(-c3ccc(F)cc3)c2F)n1)c1ccccc1C(F)(F)F [Compound I-1-642]	3.40
O=C(Nc1cnn(-c2ncc(Cl)cc2Cl)n1)c1ccccc1I [Compound I-2-65]	3.04
CC1=C(C(=O)Nc2ccn(-c3c(F)cccc3F)n2)S(=O)(=O)CCO1 [Compound I-1-616]	1.80

Next, values leading:

log P	Compound
1.71	O=C(Nc1cnn(-c2ncc(F)cc2F)n1)c1cccnc1Br [Compound I-2-69]
2.36	Cn1nc(C(F)(F)F)c(C(=O)Nc2ccn(-c3ncc(F)cc3F)n2)c1F [Compound I-1-158]
3.42	CCCc1nn(C)c(C(=O)Nc2ccn(-c3ncc(F)cc3F)n2)c1Cl [Compound I-1-531]
2.48	O=C(Nc1ccn(-c2ncc(F)cc2F)n1)c1ccccc1O [Compound I-1-148]
3.37	CCC(C)n1ncc(Cl)c1C(=O)Nc1ccn(-c2ncc(F)cc2F)n1 (stereo not drawn) [Compound I-1-455]
2.69	CCc1ccccc1C(=O)Nc1ccn(-c2ncc(F)cc2F)n1 [Compound I-1-488]
2.93	CCn1nc(C)c(Br)c1C(=O)Nc1ccn(-c2ncc(F)cc2F)n1 [Compound I-1-519]
1.88	Cc1nc(C)c(C(=O)Nc2ccn(-c3ncc(F)cc3F)n2)s1 [Compound I-1-478]
2.50	O=C(Nc1cnn(-c2ncc(F)cc2F)n1)c1sccc1C(F)(F)F [Compound I-2-85]
3.04	O=C(Nc1ccn(-c2nc(F)c(F)cc2F)n1)c1ccccc1I [Compound I-1-165]
2.42	CCc1nccnc1C(=O)Nc1ccn(-c2ncc(F)cc2F)n1 [Compound I-1-489]
2.03	N#Cc1cncnc1-n1ccc(NC(=O)c2c(F)cccc2F)n1 [Compound I-1-595]
2.76	Cn1nc(C(F)(F)F)c(C#N)c1C(=O)Nc1ccn(-c2ncc(F)cc2F)n1 [Compound I-1-536]
2.53	Cc1nn(C)c(C(=O)Nc2ccn(-c3ncc(F)cc3F)n2)c1Br [Compound I-1-517]
2.50	Cn1nc([N+](=O)[O-])c(Cl)c1C(=O)Nc1ccn(-c2ncc(F)cc2F)n1 [Compound I-1-530]
3.19	Cn1nc(C(F)(F)C(F)(F)F)c(C#N)c1C(=O)Nc1ccn(-c2ncc(F)cc2F)n1 [Compound I-1-535]
2.72	O=C(Nc1ccn(-c2ncc(F)cc2F)n1)c1cccc(Cl)c1Cl [Compound I-1-476]
2.00	O=C(Nc1ccn(-c2ncc(F)cc2F)n1)c1cncnc1C(F)(F)F [Compound I-1-154]
